Experimental findings from article PMC7462607 (eLife, 2020) are described below.

Values joined by “and” are separate entries in the source; they are usually repeats but may differ in a detail not shown here. Identical values can stand only once.

In assay [1] the target is T1, CDK12 kinase domain/CCNK-3xHA (Homo sapiens, UniProt Q9NYV4).
T1 construct: ORFs encoding residues 715–1052 of CDK12 and residues 693–1030 of CDK13; expressed in transfected cells; host or cells: 293T
The assay can be described thus: Co-expression of 3xFLAG-CDK12 kinase domain with CCNK-3xHA. The following applies: 293T, HQ461 8 hr; not with G731E or G731R. It is filed as cell-based. The method, then: ORFs encoding residues 715–1052 of CDK12 and residues 693–1030 of CDK13 were cloned into a pCDNA3.1-N-3xFLAG vector. For setting up cells for co-transfection, 0.6 million 293 T cells were seeded per well in 6-well tissue-culture plates and allowed to attach to plates overnight. These cells were then transfected with 50 ng of pCDNA3.1-3xFLAG-CDK12/13 kinase domain, 50 ng of pCDNA3.1-CCNK-3xHA, and 400 ng of the empty pCDNA3.1 vector. Twenty-four hours post transfection, cells were treated with HQ461 for 8 hr, and lysates were collected for western blotting with anti-FLAG and anti-HA antibodies.

Assay [2] deals with T2, FLAG-Avi-DDB1 and His-CDK12KD G731E/His-CCNKΔC (Homo sapiens, UniProt Q9NYV4, G731E).
T2 construct: Human CDK12KD (residues 715–1052); made in house; host or cells: Sf9 or High Five (CDK12KD/CCNKΔC, co-infected with yeast CAK1); 293F with BirA (FLAG-Avi-DDB1)
T2 sequence (Q9NYV4 715-1052 G731E limits assumed): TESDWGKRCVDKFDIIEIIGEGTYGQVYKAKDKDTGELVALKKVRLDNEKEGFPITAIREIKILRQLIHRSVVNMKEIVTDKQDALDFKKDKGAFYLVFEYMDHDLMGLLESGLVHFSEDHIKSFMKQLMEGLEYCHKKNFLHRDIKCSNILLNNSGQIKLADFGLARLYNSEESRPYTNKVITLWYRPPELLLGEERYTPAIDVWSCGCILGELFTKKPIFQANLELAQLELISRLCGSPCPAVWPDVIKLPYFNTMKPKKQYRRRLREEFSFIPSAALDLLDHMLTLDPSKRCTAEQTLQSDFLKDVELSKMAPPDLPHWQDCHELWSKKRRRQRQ
T2 sequence (O75909 11-267 partner limits assumed): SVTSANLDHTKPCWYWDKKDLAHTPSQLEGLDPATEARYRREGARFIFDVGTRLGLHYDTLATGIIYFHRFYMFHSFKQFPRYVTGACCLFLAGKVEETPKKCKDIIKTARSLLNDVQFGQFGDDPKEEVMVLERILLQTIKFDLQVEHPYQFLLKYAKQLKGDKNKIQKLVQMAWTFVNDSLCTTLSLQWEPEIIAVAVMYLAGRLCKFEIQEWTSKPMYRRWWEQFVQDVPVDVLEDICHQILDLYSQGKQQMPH
The assay is described as follows: AlphaScreen assay, G731E. The assay is classed as binding. The settings on record: for AlphaScreen: G731E, raw signal. The method, then: Biotinylated FLAG-Avi-DDB1 (3 µM) and 6xHis-CDK12KD/6xHis-CCNKΔC (WT or G731E/R mutants) (3 µM) were mixed in an assay buffer (50 mM HEPES, pH7.5, 300 mM NaCl, 0.5 mM TCEP, 0.1% NP-40, 0.1% BSA) and a serial dilution of HQ461.The protein-compound mix was transferred to 384-well plates (Corning, Corning, USA); 15 μL per well. After a 1 hr room temperature incubation, 10 µL of nickel chelate (Ni-NTA) acceptor beads (PerkinElmer, Waltham, USA, Waltham, USA, 6760619C) (1:100 diluted with assay buffer) was added per well. After incubation in the dark for 1 hr at room temperature, 10 μL of streptavidin donor beads (PerkinElmer, Waltham, USA, 6760619C) (1:100 diluted in assay buffer) was added per well. After another 1 hr incubation, AlphaScreen signal was measured on the EnVision multimode plate reader (PerkinElmer, Waltham, USA). For THZ531 competition, FLAG-Avi-DDB1, 6xHis-CDK12KD/6xHis-CCNKΔC mix was preincubated with 5 μM of THZ531 for 30 min on ice followed by the procedures described above.
For orientation: In Alpha technology, singlet oxygen from a donor bead excites a nearby acceptor bead.

Assay [3] deals with T3, CDK12KD/CCNKΔC (Homo sapiens, UniProt Q9NYV4).
T3 construct: Human CDK12KD (residues 715–1052); 6xHis (PreScission site) (N, cleaved yes); made in house; host or cells: Sf9 or High Five, co-infected with yeast CAK1
T3 sequence (Q9NYV4 715-1052, stated change not applied): as the sequence (Q9NYV4 715-1052 G731E limits assumed) above, with E17G counted along it
T3 sequence (O75909 11-267 partner limits assumed): as the sequence (O75909 11-267 partner limits assumed) above
The assay can be described thus: Differential Scanning Fluorimetry (DSF), CDK12KD/CCNKΔC. The assay is classed as binding. The settings on record: 50 µM HQ461, Sypro Orange; read-out: increase in melting temperature (Tm) of CDK12KD/CCNKΔC. The method, then:
CDK12KD/CCNKΔC (WT or G731E/R) and DDB1ΔBPB were diluted to 5 μM with DSF assay buffer (50 mM HEPES pH 7.5, 300 mM NaCl, 0.5 mM TCEP). 50 µM HQ461 or 10 µM HBx was added to diluted proteins (final DMSO concentration 0.25%). Twenty µL of protein-compound mix was aliquoted per qPCR tube (Labtidebiotech, Shanghai, China, P01-0803E) followed by the addition of 5 µL of 1:400 diluted SYPRO Orange (Sigma-Aldrich, MO, USA, S5692). After incubation on ice for 20 min, fluorescence measurements were performed using a Bio-Rad CFX96 Realtime PCR instrument. During the DSF experiment, the temperature was increased from 10°C to 95°C at an increment of 0.5 °C with equilibration time of 10 s at each temperature prior to measurement. Tm was defined as the temperature corresponding to the maximum value of the first derivative of fluorescence transition.
(DSF heats the sample and reads unfolding from a dye or from intrinsic fluorescence.)

Assay [4] relates to CDK12KD/CCNKΔC (WT or G731E/R). The assay can be described thus: Nano DSF. The following applies: increasing concentrations of HQ461. It is filed as binding, human. The method, then: CDK12KD/CCNKΔC (WT or G731E/R) or DDB1ΔBPB were diluted with DSF assay buffer (50 mM HEPES pH 7.5, 300 mM NaCl, 0.5 mM TCEP) to 3.6 µM and mixed with diluted HQ461 (final DMSO concentration 2%). Tryptophan fluorescence was measured using Tycho NT.6 (NanoTemper, South San Francisco, USA). During the thermal shift experiment, temperature was increased from 35°C to 95°C and fluorescence was scanned at 350 nm and 330 nm. Ti (inflection temperature of the unfolding transition) was calculated from the 350 nm/330 nm ratio.

Assay [5] deals with CCNK-luc reporter. The assay is described as follows: CCNK-luc degradation assay. It is filed as cell-based, Homo sapiens. The settings on record: 8 hr. The method, then:
The ORF for CCNK was fused with the firefly luciferase (luc) sequence and inserted into the pCDNA3.1 vector. For setting up cells for co-transfection, 0.6 million 293 T cells were seeded per well in 6-well plates and allowed to attach to plates overnight. These cells were then transfected with 50 ng of pCDNA3.1-3xFLAG-CDK12 kinase domain, 50 ng of pCDNA3.1-CCNK-luc, and 400 ng of the empty pCDNA3.1 vector. Twenty-four hours later, transfected cells were dissociated by trypsin digestion and then plated in 96-well white plates. After overnight attachments, cells were then treated with HQ461 and its analog derivatives for 8 hr followed by measurements of luciferase activity with Bright-Glo luciferase assay system (Promega, Madison, USA). Half maximal CCNK-degradation concentrations (DC50) of HQ461 and its active analogs were interpolated by curve fitting with GraphPad Prism using baseline correction (by normalizing to DMSO control), the asymmetric (five parameter) equation, and least squares fit.

T1 sequence (Q9NYV4 715-1052): as the sequence (Q9NYV4 715-1052 G731E limits assumed) above, with E17G counted along it
T1 sequence (O75909 whole entry partner, the tested form may be a part): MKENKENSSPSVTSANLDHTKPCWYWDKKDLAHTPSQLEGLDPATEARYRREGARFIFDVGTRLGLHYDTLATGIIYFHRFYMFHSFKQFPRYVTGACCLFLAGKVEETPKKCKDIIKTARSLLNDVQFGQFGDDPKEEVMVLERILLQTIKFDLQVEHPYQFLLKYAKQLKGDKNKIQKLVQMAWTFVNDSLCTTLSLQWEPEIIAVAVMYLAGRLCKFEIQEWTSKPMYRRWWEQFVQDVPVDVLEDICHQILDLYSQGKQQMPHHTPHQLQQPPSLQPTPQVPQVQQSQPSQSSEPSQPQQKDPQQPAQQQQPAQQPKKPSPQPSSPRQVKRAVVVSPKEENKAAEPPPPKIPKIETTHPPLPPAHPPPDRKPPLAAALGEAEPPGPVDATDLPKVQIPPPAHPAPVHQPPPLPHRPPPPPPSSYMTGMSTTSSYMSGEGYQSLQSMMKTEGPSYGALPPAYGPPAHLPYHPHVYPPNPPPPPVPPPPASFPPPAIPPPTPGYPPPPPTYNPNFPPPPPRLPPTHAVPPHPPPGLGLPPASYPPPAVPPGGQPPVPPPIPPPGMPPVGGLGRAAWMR
T1 sequence (Q16531 2-1140 partner limits assumed): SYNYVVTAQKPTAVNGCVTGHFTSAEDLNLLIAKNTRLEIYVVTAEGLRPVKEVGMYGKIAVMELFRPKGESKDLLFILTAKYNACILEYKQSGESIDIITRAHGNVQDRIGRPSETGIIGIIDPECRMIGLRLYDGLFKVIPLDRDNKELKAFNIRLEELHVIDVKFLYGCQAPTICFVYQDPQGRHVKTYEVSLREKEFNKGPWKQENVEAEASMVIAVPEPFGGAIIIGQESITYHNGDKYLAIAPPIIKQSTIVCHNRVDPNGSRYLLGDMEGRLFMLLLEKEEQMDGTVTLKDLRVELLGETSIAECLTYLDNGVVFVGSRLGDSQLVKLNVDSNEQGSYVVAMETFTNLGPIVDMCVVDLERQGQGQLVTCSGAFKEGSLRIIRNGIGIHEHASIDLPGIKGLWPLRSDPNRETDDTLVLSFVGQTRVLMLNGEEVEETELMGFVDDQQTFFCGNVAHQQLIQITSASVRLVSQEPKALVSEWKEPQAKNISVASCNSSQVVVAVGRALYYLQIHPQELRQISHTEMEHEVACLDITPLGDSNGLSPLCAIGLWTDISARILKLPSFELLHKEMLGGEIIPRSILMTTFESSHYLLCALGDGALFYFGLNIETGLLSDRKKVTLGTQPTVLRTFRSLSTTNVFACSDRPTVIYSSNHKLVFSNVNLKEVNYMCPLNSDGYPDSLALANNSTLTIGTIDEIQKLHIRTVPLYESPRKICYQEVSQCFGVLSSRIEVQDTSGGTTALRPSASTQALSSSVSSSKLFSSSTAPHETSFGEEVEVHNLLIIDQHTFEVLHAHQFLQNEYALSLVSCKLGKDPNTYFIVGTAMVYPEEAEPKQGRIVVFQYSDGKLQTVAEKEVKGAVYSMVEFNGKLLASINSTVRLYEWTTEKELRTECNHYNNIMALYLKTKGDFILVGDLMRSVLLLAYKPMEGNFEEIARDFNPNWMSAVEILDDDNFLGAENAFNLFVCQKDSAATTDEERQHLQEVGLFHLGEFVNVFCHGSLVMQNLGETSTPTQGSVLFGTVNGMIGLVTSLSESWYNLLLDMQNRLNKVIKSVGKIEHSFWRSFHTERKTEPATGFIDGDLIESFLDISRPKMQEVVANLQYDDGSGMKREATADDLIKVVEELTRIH

As for `Cc1cccc(Nc2nc(CC(=O)Nc3ncc(C)s3)cs2)n1` [HQ461, 2-(2-((6-methylpyridin-2-yl)amino)thiazol-4-yl)-N-(5-methylthiazol-2-yl)acetamide], the “CCNK destabilization with co-expressed wild-type CDK12 kinase domain” value in assay [1] is reported as “sufficient for mediating HQ461-dependent destabilization of CCNK”. Moreover, the AlphaScreen in assay [2] (HQ461 2.22e-6 M) was 1248 and 1240 and 1185; in assay [2] (HQ461 6.67e-6 M), 1251 and 1198 and 1100; in assay [2] (HQ461 2e-5 M), 1233 and 1200 and 1143; in assay [2] (HQ461 2.47E-07 M), 1234 and 1107 and 1145; in assay [2] (HQ461 2.74E-08 M), 1248 and 1124 and 1169; in assay [2] (HQ461 7.41E-07 M) it was 1137 and 1171 and 1109. In addition, the AlphaScreen in assay [2] (HQ461 8.23E-08 M) was 1304 and 1157 and 1110. For the same compound, in assay [2] (even with 20 µM of HQ461), the “complex formation with DDB1, G731E mutant” value is given as “did not form a complex with DDB1”. The ΔTm at 50 µM in assay [3] was 1.4 °C. In assay [4], the “Tm of CDK12KD/CCNKΔC wild type or G731E/R mutants” value was “increased in an HQ461 concentration-dependent manner”. The “Dmax (10 μM), percentage of CCNK degradation relative to DMSO control” value in assay [5] (10 µM) is 86.0%. Moreover, the DC50 in assay [5] (293T, read-out: DC50 (half maximal CCNK-degradation concentration)) worked out at 132 nM.
